Assays:
[1] = tested on: soybean plants comprising EE-GM3; experiment: field trials of EE-GM3 in different commercial genetic backgrounds, herbicide challenge; type: in vivo, Glycine max; conditions: glyphosate and/or isoxaflutole, different treatments, different locations and genetic backgrounds
Excerpt: The selected event EE-GM3 was introduced in different commercial genetic backgrounds, and results of field trials on different locations were compared. Plants were challenged with glyphosate herbicide and/or isoxaflutole herbicide using different treatments. […] Hundreds of different soybean cultivars containing event EE-GM3 were used in an inheritance study, and herbicides were applied. Selected lines from this trial were later increased in the field and also treated with herbicide. From that trial, 50 selected lines were increased, and these were also herbicide treated.

[2] = tested on: soybean plants comprising EE-GM3 and EE-GM2; experiment: field trial of lines combining EE-GM3 and EE-GM2 sprayed with glyphosate and glufosinate; type: in vivo, Glycine max; conditions: approximately 40 lines homozygous for tolerance to both herbicides
Excerpt: A soybean plant containing a combination of elite events EE-GM3 and EE-GM2 has been obtained by conventional crossing between a parent soybean plant comprising EE-GM3 and a parent soybean plant comprising EE-GM2. Progeny plants comprising both events are identified using PCR Identification Protocols for EE-GM2 and EE-GM3 as described herein. Specifically, crosses were made with plants containing EE-GM3 and plants containing EE-GM2. The resulting F1 plants were crossed to 4 conventional lines. The F1s from these crosses were grown in the field and sprayed with glyphosate and glufosinate. F2 seed harvested from F1 plants resistant to both herbicides was then planted. The F2 plants were sprayed with both glyphosate and glufosinate. Nine hundred plants tolerant to both herbicides were harvested and planted in a field trial. Expected Mendelian segregation data for the events was obtained in this trial. Approximately 40 lines homozygous for tolerance to both herbicides were selected for agronomic uniformity for further studies.

Compound | herbicide tolerance of plants [1] | tolerance of selected homozygous lines to herbicide [2]
CS(=O)(=O)c1cc(C(F)(F)F)ccc1C(=O)c1cnoc1C1CC1 [IFT, (5-cyclopropyl-4-isoxazolyl)[2-(methylsulfonyl)-4-(trifluoromethyl)phenyl]methanone] | good herbicide tolerance | –
CP(=O)(O)CCC(N)C(=O)O (stereo not shown) [glufosinate] | – | good tolerance
O=C(O)CNCP(=O)(O)O [glyphosate] | good herbicide tolerance | good tolerance

From patent US9062324B2, “Herbicide tolerant soybean plants and methods for identifying same” (M.S. TECHNOLOGIES LLC, priority 2009, dated 2015)
